Laboratory results reported in ChEMBL document CHEMBL1151239, “New glycosides of the fungus Acremonium striatisporum isolated from a sea cucumber” (J Nat Prod, 2004).

Columns and labels:
[1] = Cytotoxicity against sea urchin egg; format: functional, Strongylocentrotus intermedius
[2] = Cytotoxicity against mouse EAC; format: functional, cell-based; conditions: Ehrlich

Compound: C=C[C@@]1(C)CC[C@H]2C(=CC[C@@H]3[C@]2(C)C[C@@H](O)[C@H](O)[C@]3(C)CO[C@@H]2O[C@H](CO[C@H]3O[C@H](CO)[C@@H](O)[C@H](O)[C@H]3O)[C@@H](O)[C@@H](O)[C@@H]2O)C1 [VIRESCENOSIDE R]
- IC50 [1]: 100 µM
- IC50 [2]: 25 µM

Compound: C=C[C@@]1(C)CCC2=C(C1)C(=O)C[C@H]1[C@@](C)(CO[C@@H]3O[C@H](CO)[C@@H](O)[C@@H](O)[C@@H]3O)C(=O)CC[C@]21C
- IC50 [1]: 100 µM
- IC50 [2]: 25 µM

Compound: C=C[C@]1(C)C=C2C(=O)C[C@@H]3[C@](C)(CCC(=O)[C@]3(C)CO[C@@H]3O[C@H](CO)[C@@H](O)[C@@H](O)[C@@H]3O)[C@H]2CC1
- IC50 [1]: 100 µM
- IC50 [2]: 25 µM

Compound: C=C[C@]1(C)C=C2[C@H](O)C[C@@H]3[C@](C)(CCC(=O)[C@]3(C)CO[C@@H]3O[C@H](CO)[C@@H](O)[C@@H](O)[C@@H]3O)[C@H]2CC1
- IC50 [1]: 100 µM
- IC50 [2]: 25 µM
